Assays:
human STING protein = human STING protein (Homo sapiens (Human), UniProt Q86WV6); assay: WT STING binding assay (HTRF, competition with labeled 2′3′cGAMP); settings: recombinant 6×His-tagged human STING, three hours at room temperature
Experimental: WT STING binding assay (Cisbio, Catalog #64BDSTGPEH). […] Upon proximity of the two dyes, the excitation of the donor by the flash lamp on the PHERAstar FSX plate reader triggers a Fluorescence Resonance Energy Transfer (FRET) towards the acceptor, which in turn fluoresces at 665 nm. To assess the ability of the synthetic small molecule STING ligands to bind to human STING, a competitive assay format was applied. A 10-point titration of each of the synthetic ligands in 5 uL were transferred into a 384 well plate, followed by 20 uL of assay buffer containing the 6×His-tagged human STING protein and labeled 2′3′cGAMP ligand and incubated for three hours at room temperature. The raw values obtained from the PHERAstar were used to calculate the reported IC50 values (the signal is inversely proportional to the binding of the synthetic ligand) through curve fitting in Genedata. The percent inhibition was calculated based upon the maximal amount of binding by synthetic compound versus the maximum binding of unlabeled 2′3′ cGAMP which was used as a control in each assay.

THP-1 Lucia ISG cells = assay: ISRE-luciferase assay (ISG-LUC activation); assay type: cell-based; settings: Homo sapiens, THP1-Lucia ISG, 24 hours, luciferase reporter
Experimental: ISRE-luciferase assay. THP-1 Lucia ISG cells were resuspended in low-serum growth media (2% FBS) at a density of 5×10^5 cells/ml and treated with test article or vehicle (DMSO). 50 μL of cells were seeded into each well of a 384-well white greiner plates and incubated for 24 hours. To evaluate expression of the luciferase reporter, 30 μl of Quanti-luc (Invivogen) detection reagent was added to each well and luminescence was read using an Envision plate reader (Perkin Elmer) set with an integration time of 0.1 seconds. For each cell type, luminescence signals for test article samples were normalized to vehicle-treated samples and reported as relative light units (RLU).

Chain of human STING protein (Q86WV6 whole entry): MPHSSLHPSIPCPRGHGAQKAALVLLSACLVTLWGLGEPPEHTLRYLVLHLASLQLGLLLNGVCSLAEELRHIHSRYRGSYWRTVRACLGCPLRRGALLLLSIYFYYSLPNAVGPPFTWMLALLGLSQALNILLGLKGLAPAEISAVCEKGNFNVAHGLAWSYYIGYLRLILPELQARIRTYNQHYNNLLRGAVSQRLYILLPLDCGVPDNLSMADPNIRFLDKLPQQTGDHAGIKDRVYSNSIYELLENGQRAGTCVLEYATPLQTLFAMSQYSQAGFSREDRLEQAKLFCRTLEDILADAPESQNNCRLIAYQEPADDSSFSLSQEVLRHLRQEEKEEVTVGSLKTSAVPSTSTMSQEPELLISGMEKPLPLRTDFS

Row | SMILES | IC50 (human STING protein) | EC50 (THP-1 Lucia ISG cells)
1 | O=C(Nc1cc(OCCCCOc2cc(NC(=O)c3ccc4nnnn4n3)c(C(=O)O)cc2F)ccc1C(=O)O)c1ccc2nnnn2n1 [Compound 1, 4-(4-(4-carboxy-3-(tetrazolo[1,5-b]pyridazine-6-carboxamido)phenoxy)butoxy)-5-fluoro-2-(tetrazolo[1,5-b]pyridazine-6-carboxamido)benzoic acid] | 100 to 1000 nM | 500 to 5000 nM
2 | O=C(Nc1cc(CCOc2cc(NC(=O)c3ccc4nnnn4n3)c(C(=O)O)cc2F)c(F)cc1C(=O)O)c1ccc(-n2ccnc2)nn1 [Compound 2, 2-(6-(1H-imidazol-1-yl)pyridazine-3-carboxamido)-4-(2-(4-carboxy-2-fluoro-5-(tetrazolo[1,5-b]pyridazine-6-carboxamido)phenoxy)ethyl)-5-fluorobenzoic acid] | 10 to 100 nM | < 50 nM
3 | O=C(Nc1cc(C[S+]([O-])Cc2cc(NC(=O)c3ccc(-n4ccnc4)nn3)c(C(=O)O)cc2F)c(F)cc1C(=O)O)c1ccc(-n2ccnc2)nn1 [Compound 7, 4,4′-(sulfinylbis(methylene))bis(2-(6-(1H-imidazol-1-yl)pyridazine-3-carboxamido)-5-fluorobenzoic acid)] | 10 to 100 nM | 500 to 5000 nM
4 | CN(Cc1cc(NC(=O)c2ccc(-n3ccnc3)nn2)c(C(=O)O)cc1F)Cc1cc(NC(=O)c2ccc(-n3ccnc3)nn2)c(C(=O)O)cc1F [Compound 8, 4,4′-((methylazanediyl)bis(methylene))bis(2-(6-(1H-imidazol-1-yl)pyridazine-3-carboxamido)-5-fluorobenzoic acid)] | < 10 nM | 500 to 5000 nM
5 | O=C(Nc1cc(OCCCCOc2cc(NC(=O)c3ccc4nnnn4n3)c(C(=O)O)cc2F)c(F)cc1C(=O)O)c1ccc2nnnn2n1 [Compound 12] | 100 to 1000 nM | 50 to 500 nM
6 | O=C(Nc1cc(OCCCCOc2ccc(C(=O)O)c(NC(=O)c3ccc(-n4ccnc4)nn3)c2)ccc1C(=O)O)c1ccc(-n2ccnc2)nn1 [Compound 16] | 100 to 1000 nM | > 5000 nM
7 | O=C(Nc1cc(OCCCCOc2cc(NC(=O)c3ccc(-n4ccnc4)nn3)c(C(=O)O)cc2F)c(F)cc1C(=O)O)c1ccc(-n2ccnc2)nn1 [Compound 17] | 100 to 1000 nM | 500 to 5000 nM
8 | O=C(Nc1cc(OCCCCOc2cc(NC(=O)c3ccc(-n4ccnc4)nn3)c(C(=O)O)cc2F)c(F)cc1C(=O)O)c1ccc(O)nn1 [Compound 18] | 100 to 1000 nM | > 5000 nM
9 | O=C(Nc1cc(OCCCCOc2ccc(C(=O)O)c(NC(=O)c3ccc4nnnn4n3)c2)ccc1C(=O)O)c1ccc(-n2ccnc2)nn1 [Compound 20] | 100 to 1000 nM | > 5000 nM
10 | O=C(Nc1cc(OCCCCOc2cc(NC(=O)c3ccc4nnnn4n3)c(C(=O)O)cc2F)c(F)cc1C(=O)O)c1ccc(-n2ccnc2)nn1 [Compound 22] | 100 to 1000 nM | > 5000 nM
11 | O=c1oc(-c2ccc(-n3ccnc3)nn2)nc2cc(OCCCCOc3cc4nc(-c5ccc(-n6ccnc6)nn5)oc(=O)c4cc3F)ccc12 [Compound 46] | 100 to 1000 nM | 500 to 5000 nM
12 | COC(=O)c1ccc(CCCc2ccc(C(=O)O)c(NC(=O)c3ccc(-n4ccnc4)nn3)c2)cc1NC(=O)c1ccc(-n2ccnc2)nn1 [Compound 47] | 100 to 1000 nM | 500 to 5000 nM
13 | O=C(Nc1cc(CCCc2ccc(C(=O)O)c(NC(=O)c3ccc(-n4ccnc4)nn3)c2)ccc1C(=O)O)c1ccc(-n2ccnc2)nn1 [Compound 48] | 10 to 100 nM | 50 to 500 nM
14 | COc1cc(C(=O)O)c(NC(=O)c2ccc(-n3ccnc3)nn2)cc1OCCCCOc1ccc(C(=O)O)c(NC(=O)c2ccc(-n3ccnc3)nn2)c1 [Compound 49] | 100 to 1000 nM | > 5000 nM
15 | O=C(Nc1cc(OCCCCOc2cc(NC(=O)c3ccc(-n4ccnc4)nn3)c(C(=O)O)cc2Cl)c(Cl)cc1C(=O)O)c1ccc(-n2ccnc2)nn1 [Compound 50] | 100 to 1000 nM | 500 to 5000 nM
16 | O=C(Nc1cc(CCCc2cc(NC(=O)c3ccc(-n4ccnc4)nn3)c(C(=O)O)nc2Cl)c(F)cc1C(=O)O)c1ccc(-n2ccnc2)nn1 [Compound 52] | 10 to 100 nM | 50 to 500 nM
17 | O=C(Nc1cc(CCCc2ccc(NC(=O)c3ccc(-n4ccnc4)nn3)c(C(=O)O)c2)ccc1C(=O)O)c1ccc(-n2ccnc2)nn1 [Compound 55] | 10 to 100 nM | 500 to 5000 nM
18 | O=C(Nc1cc(OCCCCOc2ccc(C(=O)O)c(NC(=O)c3ccc4nnnn4n3)c2)c(F)cc1C(=O)O)c1ccc(-n2ccnc2)nn1 [Compound 57] | 10 to 100 nM | > 5000 nM
19 | COc1cc(C(=O)O)c(NC(=O)c2ccc(-n3ccnc3)nn2)cc1OCCCCOc1cc(NC(=O)c2ccc(-n3ccnc3)nn2)c(C(=O)O)cc1F [Compound 58] | 100 to 1000 nM | 500 to 5000 nM
20 | COC(=O)c1ccc(OCCCCOc2cc(NC(=O)c3ccc4nnnn4n3)c(C(=O)O)cc2F)cc1NC(=O)c1ccc(-n2ccnc2)nn1 [Compound 62] | 100 to 1000 nM | > 5000 nM
21 | O=C(Nc1cc(OCCCCOc2cnc(C(=O)O)c(NC(=O)c3ccc(-n4ccnc4)nn3)c2)c(F)cc1C(=O)O)c1ccc2nnnn2n1 [Compound 64] | 10 to 100 nM | > 5000 nM

Row | SMILES | IC50 (human STING protein) | EC50 (THP-1 Lucia ISG cells)
22 | O=C(Nc1cc(CCCc2cnc(C(=O)O)c(NC(=O)c3ccc(-n4ccnc4)nn3)c2)c(F)cc1C(=O)O)c1ccc(-n2ccnc2)nn1 [Compound 65] | 10 to 100 nM | 500 to 5000 nM
23 | O=C(Nc1ccc(CCCc2cc(NC(=O)c3ccc(-n4ccnc4)nn3)c(C(=O)O)cc2F)cc1C(=O)O)c1ccc(-n2ccnc2)nn1 [Compound 71] | 10 to 100 nM | > 5000 nM
24 | O=C(Nc1cc(OCCCCOc2cc(NC(=O)c3ccc4nnnn4n3)c(C(=O)O)cc2Cl)ccc1C(=O)O)c1ccc(-n2ccnc2)nn1 [Compound 72] | 10 to 100 nM | 500 to 5000 nM
25 | O=C(Nc1cc(OCCCCOc2cc(NC(=O)c3ccc4nnnn4n3)c(C(=O)O)cc2F)ccc1C(=O)O)c1ccc(-n2ccnc2)nn1 [Compound 74] | 10 to 100 nM | > 5000 nM
26 | O=C(Nc1cc(CCCc2ccc(C(=O)O)c(NC(=O)c3ccc4nnnn4n3)c2)c(F)cc1C(=O)O)c1ccc(-n2ccnc2)nn1 [Compound 75] | 100 to 1000 nM | 500 to 5000 nM
27 | COC(=O)c1cc(F)c(CCCc2cc(NC(=O)c3ccc4nnnn4n3)c(C(=O)O)cc2F)cc1NC(=O)c1ccc(-n2ccnc2)nn1 [Compound 76] | 10 to 100 nM | 50 to 500 nM
28 | O=C(Nc1cc(CCCc2cc(NC(=O)c3ccc4nnnn4n3)c(C(=O)O)cc2Cl)ccc1C(=O)O)c1ccc(-n2ccnc2)nn1 [Compound 77] | 10 to 100 nM | 50 to 500 nM
29 | COC(=O)c1ccc(CCCc2cc(C(=O)O)c(NC(=O)c3ccc(-n4ccnc4)nn3)cc2F)cc1NC(=O)c1ccc(-n2ccnc2)nn1 [Compound 79] | 100 to 1000 nM | 50 to 500 nM
30 | COC(=O)c1nc(Cl)c(CCCc2cnc(C(=O)O)c(NC(=O)c3ccc(-n4ccnc4)nn3)c2)cc1NC(=O)c1ccc(-n2ccnc2)nn1 [Compound 80] | 10 to 100 nM | 500 to 5000 nM
31 | O=C(Nc1cc(CCCc2cnc(C(=O)O)c(NC(=O)c3ccc(-n4ccnc4)nn3)c2)c(F)cc1C(=O)O)c1ccc2nnnn2n1 [Compound 82] | 100 to 1000 nM | > 5000 nM
32 | O=C(Nc1cc(OCCCCOc2cnc(C(=O)O)c(NC(=O)c3ccc4nnnn4n3)c2)c(F)cc1C(=O)O)c1ccc(-n2ccnc2)nn1 [Compound 83] | 100 to 1000 nM | > 5000 nM
33 | COc1cc(NC(=O)c2ccc3nnnn3n2)c(C(=O)O)cc1CCCc1ccc(C(=O)O)c(NC(=O)c2ccc(-n3ccnc3)nn2)c1 [Compound 84] | 100 to 1000 nM | 500 to 5000 nM
34 | COc1cc(C(=O)O)c(NC(=O)c2ccc3nnnn3n2)cc1CCCc1cnc(C(=O)O)c(NC(=O)c2ccc(-n3ccnc3)nn2)c1 [Compound 85] | 100 to 1000 nM | > 5000 nM
35 | COc1cc(C(=O)O)c(NC(=O)c2ccc3nnnn3n2)cc1CCCc1ccc(C(=O)O)c(NC(=O)c2ccc(-n3ccnc3)nn2)c1 [Compound 86] | 10 to 100 nM | 50 to 500 nM
36 | O=C(Nc1cc(CCCc2cc(NC(=O)c3ccc4nnnn4n3)c(C(=O)O)nc2Cl)ccc1C(=O)O)c1ccc(-n2ccnc2)nn1 [Compound 87] | 10 to 100 nM | 50 to 500 nM
37 | COC(=O)c1ccc(CCCc2cc(NC(=O)c3ccc4nnnn4n3)c(C(=O)O)cc2F)cc1NC(=O)c1ccc(-n2ccnc2)nn1 [Compound 88] | 100 to 1000 nM | 500 to 5000 nM
38 | O=C(Nc1cc(CCCc2cc(NC(=O)c3ccc4nnnn4n3)c(C(=O)O)cc2F)ccc1C(=O)O)c1ccc(-n2ccnc2)nn1 [Compound 89] | 10 to 100 nM | 50 to 500 nM
39 | COc1cc(C(=O)O)c(NC(=O)c2ccc3nnnn3n2)cc1OCCc1ccc(C(=O)O)c(NC(=O)c2ccc(-n3ccnc3)nn2)c1 [Compound 91] | 100 to 1000 nM | > 5000 nM
40 | O=C(Nc1cc(CCOc2cc(NC(=O)c3ccc4nnnn4n3)c(C(=O)O)cc2F)ccc1C(=O)O)c1ccc(-n2ccnc2)nn1 [Compound 92] | 10 to 100 nM | 50 to 500 nM
41 | O=C(Nc1cc(CCCc2cc(C(=O)O)c(NC(=O)c3ccc4nnnn4n3)cc2Cl)ccc1C(=O)O)c1ccc(-n2ccnc2)nn1 [Compound 93] | 10 to 100 nM | 50 to 500 nM

From patent US20230357253A1, “AGONISTS OF STIMULATOR OF INTERFERON GENES STING” (THE SCRIPPS RESEARCH INSTITUTE, priority 2020, published 2023)
